For series [1], the system named is 20-HETE synthase originated from rat kidney microsome. The series is described as follows: Inhibitory effect of 20-HETE synthase originated from rat kidney microsome. Particulars: rat kidney microsome; for Inhibition rate (1 μM): 20-HETE production without compound set to 100%. The class given is biochemical. On the procedure: Experimental Example [Inhibitory effect of 20-HETE synthase originated from rat kidney microsome]
Regarding the compounds listed in Table 1, their inhibitory activity to production of 20-HETE was examined.
The subject compound for this examination was added to a buffer comprising 50 mM of 3-morpholinopropane sulfonic acid (pH7.4), 5 mM of magnesium chloride and 1 mM of ethylenediaminetetraacetic acid (EDTA) disodium salt.
After that, the rat kidney microsome (microsome fraction prepared from the kidney of a spontaneous hypertension rat (male, 6 weeks of age)) as an enzyme, [5,6,8,9,11,12,14,15] tritium-arachidonic acid (supplied by Amasham) as a substrate, and NADPH (supplied by Sigma) as a coenzyme were added and reacted for 1.5 hours at 37° C.
After the reaction, formic acid was added to stop the reaction, and then acetonitrile (final concentration of 50%) was added and left for 1.5 hours at room temperature.
The activity of 20-HETE synthase was measured by using a high performance liquid chromatograph having a detector for radioactive substances (supplied by Gilson), and equipped with a C18 reversed phase column (Biocyl C18, supplied by Bio-rad).

[2] abbreviates: 1 μM of the subject compound added.
The mark [3] stands for this setting: concentration at which production of 20-HETE was inhibited to 50%.
The mark [4] stands for this setting: concentration at which 20-HETE production was inhibited to 50%.

In turn, `O/N=C/Nc1ccc(Cl)cc1F` [Comp. 25] had a melting point of 142.5 to 144.5 °C. The “Inhibition rate (1 μM)” value in series [1] (setting [2]) was found to be 87.0.
`COc1ccc(Cl)cc1N/C=N/O` [Comp. 26] returned a melting point of 155 to 156.5 °C. The “Inhibition rate (1 μM)” value in series [1] (setting [2]) turned out to be 86.0. For the same molecule, inhibition in series [1] (setting [3]) was half-maximal at 204 nM (IC50).
`O/N=C/Nc1ccc(C(F)(F)F)cc1` [Comp. 27] registered a melting point of 140.5 to 142 °C. Further, in series [1] (setting [2]), the “Inhibition rate (1 μM)” value is 103.3. For the same molecule, in series [1] (setting [3]), the IC50 worked out at 1.7 nM.
In turn, `CCCCCCCc1ccc(N/C=N/O)cc1` [Comp. 28] registered a melting point of 119 to 120.5 °C. Also, the “Inhibition rate (1 μM)” value in series [1] (setting [2]) stood at 92.5. Besides, the IC50 in series [1] (setting [3]) is 4.7 nM.
`CC(C)c1cccc(N/C=N/O)c1` [Comp. 29] had a melting point of 93 to 94.5 °C. Moreover, the “Inhibition rate (1 μM)” value in series [1] (setting [2]) is 93.6.
`CCCc1ccc(N/C=N/O)cc1` [Comp. 31]: the melting point is 131 to 132 °C. In series [1] (setting [2]), the “Inhibition rate (1 μM)” value came out at 97.8. The IC50 in series [1] (setting [3]) came out at 6.6 nM.
Turning to `CC(C)c1ccccc1N/C=N/O` [Comp. 32], the melting point was 114 to 115 °C. For the same molecule, in series [1] (setting [2]), the “Inhibition rate (1 μM)” value was 87.2.
Taken in the same sequence, the figures for `O/N=C/Nc1c(Br)cccc1Br` [Comp. 33] were 171 °C and 91.9.
In turn, `O/N=C/Nc1ccc(Br)cc1Br` [Comp. 34] registered a melting point of 163 to 163.5 °C. The “Inhibition rate (1 μM)” value in series [1] (setting [2]) is reported as 90.6. Besides, in series [1] (setting [3]), the IC50 worked out at 79.7 nM.
Molecule `O/N=C/Nc1ccc(Br)cc1` [Comp. 36] returned a melting point of 163 to 164 °C. Also, the “Inhibition rate (1 μM)” value in series [1] (setting [2]) is reported as 98.3. This molecule also returned an IC50 in series [1] (setting [3]) of 136 nM.
Taken in the same sequence, the figures for `Cc1cc(Cl)ccc1N/C=N/O` [Comp. 38] were 151 to 152.5 °C, 89.8 and 79.8 nM.
In turn, `O/N=C/Nc1ccc(Cl)cc1Cl` [Comp. 40] returned a melting point of 160 to 161 °C. For the same molecule, in series [1] (setting [2]), the “Inhibition rate (1 μM)” value came to 98.2.
`Cc1cc(Br)ccc1N/C=N/O` [Comp. 41] registered a melting point of 161 to 161.5 °C. Moreover, the “Inhibition rate (1 μM)” value in series [1] (setting [2]) was 96.6. In series [1] (setting [3]), this molecule returned an IC50 of 49 nM.
`CCC(C)c1ccccc1N/C=N/O` (stereo not shown) [Comp. 42] returned a melting point of 144 to 145 °C. Besides, the “Inhibition rate (1 μM)” value in series [1] (setting [2]) was found to be 99.9.
On to `Cc1ccc(F)c(N/C=N/O)c1` [Comp. 43], for which the melting point is 123 to 124 °C. Further, in series [1] (setting [3]), the IC50 is 168 nM.
Taken in the same sequence, the figures for `CCCOC(=O)c1ccc(N/C=N/O)cc1` [Comp. 44] were 145 to 146 °C and 8.1 nM.
In the case of `Cc1cc(C)c(N/C=N/O)c(Br)c1` [Comp. 45], the melting point was in the range of 163.5 to 164.5 °C. For the same molecule, the “Inhibition rate (1 μM)” value in series [1] (setting [2]) was found to be 53.5.
`O/N=C/Nc1cccc(C(F)(F)F)c1` [Comp. 46] had a melting point of 100.5 to 102 °C. Also, the “Inhibition rate (1 μM)” value in series [1] (setting [2]) is 48.5. In series [1] (setting [3]), this molecule displayed an IC50 of 355 nM.
Taken in the same sequence, the figures for `Cc1cc(I)ccc1N/C=N/O` [Comp. 47] were 166 to 166.5 °C, 94.8 and 6.5 nM.
In turn, `O/N=C/Nc1cc(C(F)(F)F)cc(C(F)(F)F)c1` [Comp. 49] came in with a melting point of 122.5 to 124 °C. The “Inhibition rate (1 μM)” value in series [1] (setting [2]) was determined as 46.7.
Molecule `O/N=C/Nc1ccc(F)cc1F` [Comp. 50] registered a melting point of 155.5 to 156.5 °C. Moreover, inhibition in series [1] (setting [3]) was half-maximal at 25.5 nM (IC50).
`Cc1cc(N/C=N/O)ccc1Br` [Comp. 51]: the melting point fell in the range of 157 to 158 °C. Also, the “Inhibition rate (1 μM)” value in series [1] (setting [2]) is recorded as 50.2. Moreover, in series [1] (setting [3]), 21.8 nM corresponded to half-maximal inhibition (IC50).
`Cc1ccc(N/C=N/O)cc1I` [Comp. 55]: the melting point lay in the range of 130.5 to 132 °C. Further, the “Inhibition rate (1 μM)” value in series [1] (setting [2]) was determined as 31.3.
On the same counts, the results for `CCc1cc(C#N)ccc1N/C=N/O` [Comp. 56] are 144 to 145.5 °C and 50.6.
Turning to `CC(C)c1ccc(N/C=N/O)c(Br)c1` [Comp. 58], the melting point fell in the range of 146.5 to 148 °C. In series [1] (setting [2]), the “Inhibition rate (1 μM)” value amounted to 99.9. In addition, in series [1] (setting [3]), the IC50 amounted to 7.1 nM.
Regarding `Cc1cc(C)c(N/C=N/O)c(C)c1` [Comp. 72], the melting point fell in the range of 168 to 169 °C. In addition, the “Inhibition rate (1 μM)” value in series [1] (setting [2]) was 99.2.
Taken in the same sequence, the figures for `O/N=C/Nc1cccc(Br)c1` [Comp. 82] were 133.5 to 134.5 °C and 70.9.
As to `O/N=C/Nc1c(Cl)cc(Cl)cc1Cl` [Comp. 121], the melting point lay in the range of 166.5 to 167 °C. Also, the “Inhibition rate (1 μM)” value in series [1] (setting [2]) is on record as 72.0.
Molecule `CCOC(=O)Cc1ccc(N/C=N/O)cc1` [Comp. 122] showed a melting point of 106 to 107.5 °C. The “Inhibition rate (1 μM)” value in series [1] (setting [2]) is on record as 94.7. The molecule further displayed an IC50 in series [1] (setting [3]) of 28.9 nM.
On to `O/N=C/Nc1cccc(Oc2ccccc2)c1` [Comp. 124], for which the melting point is 100 to 102 °C. For the same molecule, in series [1] (setting [2]), the “Inhibition rate (1 μM)” value is on record as 92.2. Also, the midpoint of inhibition in series [1] (setting [3]), the IC50, lay at 354 nM.
For `COc1cccc(C(F)(F)F)c1N/C=N/O` [Comp. 125], the melting point is 138 to 139.5 °C (dec.). For the same molecule, the “Inhibition rate (1 μM)” value in series [1] (setting [2]) is reported as 67.6.
Taken in the same sequence, the figures for `O=[N+]([O-])c1cc(F)ccc1N/C=N/O` [Comp. 126] were 172.5 to 173 °C (dec.) and 34.9.
As to `O/N=C/Nc1ccc(Oc2ccc(Cl)cc2)cc1` [Comp. 128], the melting point lay in the range of 143 to 145 °C. Moreover, the “Inhibition rate (1 μM)” value in series [1] (setting [2]) is reported as 102.0. Inhibition in series [1] (setting [3]) was half-maximal at 7 nM (IC50).
Taken in the same sequence, the figures for `Cc1ccc(Oc2ccc(N/C=N/O)cc2)cc1` [Comp. 130] were 155 to 156 °C, 116.5 and 6.9 nM.
Taken in the same sequence, the figures for `O/N=C/Nc1ccc(Oc2ccccc2)cc1` [Comp. 131] were 144 to 145.5 °C, 89.2 and 26 nM.
Taken in the same sequence, the figures for `Cc1ccc(N/C=N/O)cc1F` [Comp. 161] were 156 to 157 °C, 88.6 and 13.4 nM.
On to `Cc1cc(N/C=N/O)ccc1C(C)C` [Comp. 178], for which the melting point was in the range of 121 to 122.5 °C. For the same molecule, in series [1] (setting [2]), the “Inhibition rate (1 μM)” value is 91.4. In addition, in series [1] (setting [3]), 9 nM corresponded to half-maximal inhibition (IC50).
Molecule `OCCc1ccc(N/C=N/O)cc1` [Comp. 207] displayed a melting point of 138 to 140 °C. The “Inhibition rate (1 μM)” value in series [1] (1 μM of subject compound) stood at 90.7. The molecule also displayed an IC50 in series [1] (setting [4]) of 11.6 nM.
Taken in the same sequence, the figures for `OCc1ccc(N/C=N/O)cc1` [Comp. 209] were 169.5 to 170 °C, 102.2 and 152 nM.
On the same counts, the results for `C#CCOc1ccc(N/C=N/O)cc1` [Comp. 227] are 139 to 141 °C, 117.8 and 39.7 nM.
The molecule `N#Cc1ccc(-c2ccc(N/C=N/O)cc2)cc1` [Comp. 229] showed a melting point of 194 to 195 °C. Also, the “Inhibition rate (1 μM)” value in series [1] (1 μM of subject compound) is 99.3. Further, in series [1] (setting [4]), half-maximal inhibition (IC50) was put at 16 nM.
On the same counts, the results for `O/N=C/Nc1cccc2c1CCCC2` [Comp. 231] are 168.5 to 169 °C, 92.9 and 196 nM.
Taken in the same sequence, the figures for `CCCC(=O)c1ccc(N/C=N/O)c(C)c1` [Comp. 232] were 154 to 155 °C, 86.0 and 6.6 nM.
With `O/N=C/Nc1ccccc1-c1ccccc1` [Comp. 234], the melting point was 111 to 113 °C. The “Inhibition rate (1 μM)” value in series [1] (1 μM of subject compound) is listed as 74.1.
Regarding `O/N=C/Nc1ccc(Br)c2ccccc12` [Comp. 235], the melting point lay within 167.5 to 168 °C. Moreover, the “Inhibition rate (1 μM)” value in series [1] (1 μM of subject compound) was 77.8. The IC50 in series [1] (setting [4]) amounted to 5920 nM.
The molecule `O/N=C/Nc1ccc(/C=C/c2ccccc2)cc1` [Comp. 237] showed a melting point of 197.5 to 198 °C. The “Inhibition rate (1 μM)” value in series [1] (1 μM of subject compound) was 96.6. The IC50 in series [1] (setting [4]) came to 26.2 nM.
For the molecule `O/N=C/Nc1ccc2c(c1)CCC2` [Comp. 238], the melting point lay within 142.5 to 144 °C. The “Inhibition rate (1 μM)” value in series [1] (1 μM of subject compound) amounted to 101.6. In addition, in series [1] (setting [4]), the IC50 came out at 30 nM.
With `O=C(c1ccccc1)c1ccc(N/C=N/O)cc1` [Comp. 239], the melting point is 182.5 to 183 °C. The molecule further registered an IC50 in series [1] (setting [4]) of 4080 nM.
The molecule `O/N=C/Nc1ccc(-n2ccc(C(F)(F)F)n2)cc1` [Comp. 273] returned a melting point of 165 to 167 °C. In series [1] (1 μM of subject compound), the “Inhibition rate (1 μM)” value was 89.2. Moreover, in series [1] (setting [4]), 96.8 nM corresponded to half-maximal inhibition (IC50).
Consider `Cc1cc(NC(=O)c2ccccc2)c(Cl)cc1N/C=N/O` [Comp. 276], for which the melting point is 207 to 207.5 °C. The “Inhibition rate (1 μM)” value in series [1] (1 μM of subject compound) was 71.8. The molecule also returned an IC50 in series [1] (setting [4]) of 55.9 nM.
With `O/N=C/Nc1ccc(N2CCCCC2)cc1` [Comp. 294], the melting point was in the range of 162 to 162.5 °C. The “Inhibition rate (1 μM)” value in series [1] (1 μM of subject compound) was 103.2. Besides, 4.9 nM corresponded to half-maximal inhibition in series [1] (setting [4]) (IC50).
`O/N=C/Nc1ccc(N2CCOCC2)cc1` [Comp. 300] displayed a melting point of 182 to 182.5 °C. Also, in series [1] (1 μM of subject compound), the “Inhibition rate (1 μM)” value amounted to 96.3. In series [1] (setting [4]), this molecule displayed an IC50 of 5.7 nM.

Usually melting point stands for the temperature of the solid-liquid transition. The term IC50 denotes the concentration that gives 50% inhibition.

The values are drawn from patent publication US7078400B2, “20-HETE synthase inhibitor” (Taisho Pharmaceutical Co., Ltd., priority 1999, dated 2006).
